Measurements as given in PubChem BioAssay AID1963854 (Molecular Pharmacology Branch, DTP, NCI, 2024).

Tested on: 186277-243-T-J2-PDC complex spheroid viability
Assay: Anticancer human tumor 186277-243-T-J2-PDC patient-derived colon adenocarcinoma cell line growth inhibition [POLQ]
Details: for IC50: curve of first compound; for viability, T/C: stronger effect = lower value
Method in brief: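 Patient-derived tumour cells were co-cultured with HUVEC and mesenchymal stem cells as multicellular spheroids at 37 °C. They were treated with POLQ inhibitors (novobiocin, ART-558, RP6685) alone or combined with other agents. Top concentrations were at or near clinical Cmax (otherwise 10 microM; SN-38 at 1 microM), decreasing in half-log steps.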

[1] = second compound 0.0316 µM, first compound 0.0316 µM
[2] = second compound 0.0316 µM, first compound 0.1 µM
[3] = second compound 0.1 µM, first compound 0.0316 µM
[4] = second compound 0.1 µM, first compound 0.1 µM
[5] = second compound 0.316 µM, first compound 0.0316 µM
[6] = second compound 0.316 µM, first compound 0.1 µM
[7] = second compound 1 µM, first compound 0.0316 µM
[8] = second compound 1 µM, first compound 0.1 µM
[9] = second compound 3.16 µM, first compound 0.0316 µM
[10] = second compound 3.16 µM, first compound 0.1 µM
[11] = second compound 10 µM, first compound 0.0316 µM
[12] = second compound 10 µM, first compound 0.1 µM
[13] = second compound 0.0316 µM, first compound 0.316 µM
[14] = second compound 0.0316 µM, first compound 1 µM
[15] = second compound 0.0316 µM, first compound 3.16 µM
[16] = second compound 0.0316 µM, first compound 10 µM
[17] = second compound 0.1 µM, first compound 0.316 µM
[18] = second compound 0.1 µM, first compound 1 µM
[19] = second compound 0.1 µM, first compound 3.16 µM
[20] = second compound 0.1 µM, first compound 10 µM
[21] = second compound 0.316 µM, first compound 0.316 µM
[22] = second compound 0.316 µM, first compound 1 µM
[23] = second compound 0.316 µM, first compound 3.16 µM
[24] = second compound 0.316 µM, first compound 10 µM
[25] = second compound 1 µM, first compound 0.316 µM
[26] = second compound 1 µM, first compound 1 µM
[27] = second compound 1 µM, first compound 3.16 µM
[28] = second compound 1 µM, first compound 10 µM
[29] = second compound 3.16 µM, first compound 0.316 µM
[30] = second compound 3.16 µM, first compound 1 µM
[31] = second compound 3.16 µM, first compound 3.16 µM
[32] = second compound 3.16 µM, first compound 10 µM
[33] = second compound 10 µM, first compound 0.316 µM
[34] = second compound 10 µM, first compound 1 µM
[35] = second compound 10 µM, first compound 3.16 µM
[36] = second compound 10 µM, first compound 10 µM
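Also: spheroids exposed to compounds for seven days.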
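For viability, T/C in this document: 100% = DMSO vehicle control viability.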

With `Cn1ncnc1[C@H]1c2n[nH]c(=O)c3cc(F)cc(c23)N[C@@H]1c1ccc(F)cc1` + Nc1ccc(C#CCN(C(=O)Cc2ncc(C(F)(F)F)cc2C(F)(F)F)c2ccc(F)cc2)nn1 the IC50 (second compound 0.0316 µM) was > 0.1 µM, the IC50 (second compound 0.1 µM) was > 0.1 µM and the IC50 (second compound 0.316 µM) was > 0.1 µM. For the same molecule, the IC50 (second compound 1 µM) was > 0.1 µM, the IC50 (second compound 3.16 µM) was > 0.1 µM and the IC50 (second compound 10 µM) was > 0.1 µM. For the same molecule, the viability, T/C (second compound 0.0316 µM, first compound 0.000316 µM) was 101%, the viability, T/C (second compound 0.0316 µM, first compound 0.001 µM) was 90.9% and the viability, T/C (second compound 0.0316 µM, first compound 0.00316 µM) was 110%. For the same molecule, the viability, T/C (second compound 0.0316 µM, first compound 0.01 µM) was 113%, the viability, T/C [1] was 130% and the viability, T/C [2] was 124%. For the same molecule, the viability, T/C (second compound 0.1 µM, first compound 0.000316 µM) was 103%, the viability, T/C (second compound 0.1 µM, first compound 0.001 µM) was 101% and the viability, T/C (second compound 0.1 µM, first compound 0.00316 µM) was 111%. For the same molecule, the viability, T/C (second compound 0.1 µM, first compound 0.01 µM) was 105%, the viability, T/C [3] was 125% and the viability, T/C [4] was 142%. For the same molecule, the viability, T/C (second compound 0.316 µM, first compound 0.000316 µM) was 87.5%, the viability, T/C (second compound 0.316 µM, first compound 0.001 µM) was 110% and the viability, T/C (second compound 0.316 µM, first compound 0.00316 µM) was 102%. The viability, T/C (second compound 0.316 µM, first compound 0.01 µM) was 111%, the viability, T/C [5] was 119% and the viability, T/C [6] was 143%. It also gave a viability, T/C (second compound 1 µM, first compound 0.000316 µM) of 91.3%, a viability, T/C (second compound 1 µM, first compound 0.001 µM) of 116% and a viability, T/C (second compound 1 µM, first compound 0.00316 µM) of 103%. For the same molecule, the viability, T/C (second compound 1 µM, first compound 0.01 µM) was 106%, the viability, T/C [7] was 120% and the viability, T/C [8] was 126%. It also gave a viability, T/C (second compound 3.16 µM, first compound 0.000316 µM) of 92.3%, a viability, T/C (second compound 3.16 µM, first compound 0.001 µM) of 111% and a viability, T/C (second compound 3.16 µM, first compound 0.00316 µM) of 112%. The viability, T/C (second compound 3.16 µM, first compound 0.01 µM) was 105%, the viability, T/C [9] was 116% and the viability, T/C [10] was 140%. The viability, T/C (second compound 10 µM, first compound 0.000316 µM) was 93.4%, the viability, T/C (second compound 10 µM, first compound 0.001 µM) was 104% and the viability, T/C (second compound 10 µM, first compound 0.00316 µM) was 106%. It also gave a viability, T/C (second compound 10 µM, first compound 0.01 µM) of 103%, a viability, T/C [11] of 117% and a viability, T/C [12] of 121%.
For `Nc1ccn(C2OC(CO)C(O)C2(F)F)c(=O)n1` (stereo not drawn) + Cc1cccc(N(C)C(=O)C2C(O)CCN2c2nc(C)cc(C(F)(F)F)c2C#N)c1, the IC50 (second compound 0.0316 µM) was < 0.0316 µM, the IC50 (second compound 0.1 µM) was < 0.0316 µM and the IC50 (second compound 0.316 µM) was < 0.0316 µM. For the same molecule, the IC50 (second compound 1 µM) was < 0.0316 µM, the IC50 (second compound 3.16 µM) was < 0.0316 µM and the IC50 (second compound 10 µM) was < 0.0316 µM. The viability, T/C [1] was 7.07%, the viability, T/C [2] was 6.17% and the viability, T/C [13] was 6.28%. It also gave a viability, T/C [14] of 7.91%, a viability, T/C [15] of 7.05% and a viability, T/C [16] of 6.44%. For the same molecule, the viability, T/C [3] was 7.12%, the viability, T/C [4] was 6.99% and the viability, T/C [17] was 7.56%. The viability, T/C [18] was 8.01%, the viability, T/C [19] was 7.17% and the viability, T/C [20] was 6.37%. For the same molecule, the viability, T/C [5] was 7.95%, the viability, T/C [6] was 7.37% and the viability, T/C [21] was 7%. For the same molecule, the viability, T/C [22] was 7.74%, the viability, T/C [23] was 7.97% and the viability, T/C [24] was 5.75%. It also gave a viability, T/C [7] of 8.61%, a viability, T/C [8] of 6.36% and a viability, T/C [25] of 7.13%. The viability, T/C [26] was 7.45%, the viability, T/C [27] was 8.07% and the viability, T/C [28] was 6.24%. It also gave a viability, T/C [9] of 6.68%, a viability, T/C [10] of 6.49% and a viability, T/C [29] of 6.57%. For the same molecule, the viability, T/C [30] was 7.84%, the viability, T/C [31] was 7.96% and the viability, T/C [32] was 6.36%. For the same molecule, the viability, T/C [11] was 6.88%, the viability, T/C [12] was 5.82% and the viability, T/C [33] was 5.86%. It also gave a viability, T/C [34] of 6.97%, a viability, T/C [35] of 6.86% and a viability, T/C [36] of 5.93%.
In the case of `C=CC(=O)N1CCN(c2nc(=O)n(-c3c(C)ccnc3C(C)C)c3nc(-c4c(O)cccc4F)c(F)cc23)C(C)C1` (stereo not drawn) + Nc1ccc(C#CCN(C(=O)Cc2ncc(C(F)(F)F)cc2C(F)(F)F)c2ccc(F)cc2)nn1, the IC50 (second compound 0.0316 µM) is reported as > 10 µM, the IC50 (second compound 0.1 µM) is reported as > 10 µM and the IC50 (second compound 0.316 µM) is reported as > 10 µM. For the same molecule, the IC50 (second compound 1 µM) was > 10 µM, the IC50 (second compound 3.16 µM) was > 10 µM and the IC50 (second compound 10 µM) was > 10 µM. For the same molecule, the viability, T/C [1] was 98.7%, the viability, T/C [2] was 84.2% and the viability, T/C [13] was 96.2%. It also gave a viability, T/C [14] of 83.5%, a viability, T/C [15] of 115% and a viability, T/C [16] of 101%. For the same molecule, the viability, T/C [3] was 93.1%, the viability, T/C [4] was 94.5% and the viability, T/C [17] was 102%. It also gave a viability, T/C [18] of 103%, a viability, T/C [19] of 95.1% and a viability, T/C [20] of 112%. For the same molecule, the viability, T/C [5] was 91%, the viability, T/C [6] was 106% and the viability, T/C [21] was 100%. It also gave a viability, T/C [22] of 96.1%, a viability, T/C [23] of 92.6% and a viability, T/C [24] of 100%. For the same molecule, the viability, T/C [7] was 91.8%, the viability, T/C [8] was 101% and the viability, T/C [25] was 90%. It also gave a viability, T/C [26] of 87.1%, a viability, T/C [27] of 96% and a viability, T/C [28] of 104%. The viability, T/C [9] was 97.6%, the viability, T/C [10] was 92.3% and the viability, T/C [29] was 97.7%. For the same molecule, the viability, T/C [30] was 102%, the viability, T/C [31] was 99.3% and the viability, T/C [32] was 101%. The viability, T/C [11] was 112%, the viability, T/C [12] was 99.9% and the viability, T/C [33] was 107%. For the same molecule, the viability, T/C [34] was 101%, the viability, T/C [35] was 95.9% and the viability, T/C [36] was 105%.
With `O=c1[nH]cc(F)c(=O)[nH]1` + COC1C(OC(N)=O)C(O)C(Oc2ccc3c(O)c(NC(=O)c4ccc(O)c(CC=C(C)C)c4)c(=O)oc3c2C)OC1(C)C the IC50 (second compound 0.0316 µM) was > 10 µM, the IC50 (second compound 0.1 µM) was > 10 µM and the IC50 (second compound 0.316 µM) was > 10 µM. For the same molecule, the IC50 (second compound 1 µM) was 9.82 µM, the IC50 (second compound 3.16 µM) was 9.69 µM and the IC50 (second compound 10 µM) was 9.8 µM. For the same molecule, the viability, T/C [1] was 88%, the viability, T/C [2] was 100% and the viability, T/C [13] was 104%. The viability, T/C [14] was 106%, the viability, T/C [15] was 70% and the viability, T/C [16] was 49.9%. For the same molecule, the viability, T/C [3] was 92%, the viability, T/C [4] was 105% and the viability, T/C [17] was 104%. The viability, T/C [18] was 100%, the viability, T/C [19] was 70% and the viability, T/C [20] was 52%. For the same molecule, the viability, T/C [5] was 104%, the viability, T/C [6] was 108% and the viability, T/C [21] was 114%. The viability, T/C [22] was 119%, the viability, T/C [23] was 69.3% and the viability, T/C [24] was 49.6%. For the same molecule, the viability, T/C [7] was 109%, the viability, T/C [8] was 111% and the viability, T/C [25] was 86.2%. It also gave a viability, T/C [26] of 102%, a viability, T/C [27] of 69% and a viability, T/C [28] of 49.8%. It also gave a viability, T/C [9] of 102%, a viability, T/C [10] of 115% and a viability, T/C [29] of 109%. The viability, T/C [30] was 107%, the viability, T/C [31] was 66.9% and the viability, T/C [32] was 49.1%. For the same molecule, the viability, T/C [11] was 117%, the viability, T/C [12] was 97.2% and the viability, T/C [33] was 108%. For the same molecule, the viability, T/C [34] was 105%, the viability, T/C [35] was 73.5% and the viability, T/C [36] was 49.6%.
